According to patent US20240226233A1, “COMPOSITION COMPRISING ZAG-DERIVED PEPTIDE FOR IMPROVING SCARS AND KELOIDS” (L&C BIO CO., LTD., priority 2021, published 2024):

Experiments:
KFs = assay: Scratch assay, cell migration of KFs; assay type: cell-based; settings: KF scratched, general medium, 24 hours
Description: (§1) HDFs and KFs were seeded in a 6-well plate. After 24 hours, the center of each well was scratched to create a wound. Thereafter, the HDF test group was treated with 10 ng/mL of TGF-β, which is overexpressed during scar formation, to create a scar environment, and then treated with the selected Z16 peptide. The migration of cells in the affected area was confirmed 24 hours later.
as §1, with “a wound generation model.” for “a wound.”, “a scarring” for “a scar”, “with Z15mer_1 to Z15mer_4 additionally synthesized in Preparation Example 2.” for “with the selected Z16 peptide.”

keloid fibroblasts (KFs) = assay: CCK-8 assay, cell proliferation of KFs; assay type: cell-based; settings: KF, 10 μg/mL, compared to untreated negative control / other candidates
Description: (§2) A CCK-8 assay was performed to select amino acid sequences corresponding to the core active region of ZAG, which has an inhibitory effect on the formation of scars, among the 18 peptide candidates. Human dermal fibroblasts (HDFs) and keloid fibroblasts (KFs) were treated with the ZAG protein-derived peptide candidates (Z1 to Z18) and the ZAG protein (ZAG) at a concentration of 10 μg/mL, and cell proliferation was then confirmed using a CCK-8 assay. A group treated with the ZAG protein alone was used as a positive control, and an untreated group was used as a negative control.
(§3) Specifically, HDFs and KFs were treated with the ZAG protein (ZAG), Z16, and the ZAG protein-derived peptide candidates (Z15mer_1 to Z15mer_4) additionally synthesized in Preparation Example 2 at a concentration of 10 μg/mL, and cell proliferation was then confirmed through a CCK-8 assay.

[1] = tested on: hypertrophic scars or keloids; assay: Overall inhibitory effect on formation of hypertrophic scars or keloids (HDF/KF tests); assay type: cell-based; settings: compared with ZAG16, scratch assay HDF and KF
Description: as §2
as §1, with “a wound generation model.” for “a wound.”, “a scarring” for “a scar”, “with Z15mer_1 to Z15mer_4 additionally synthesized in Preparation Example 2.” for “with the selected Z16 peptide.”

[2] = tested on: collagen I, III, TGF-β, pSMAD2/3; assay: RNA (PCR) and protein (Western blotting) expression in scratched KFs; assay type: cell-based; settings: KF, vs untreated negative control; for mRNA expression of collagen I, III, and TGF-β: PCR; for protein expression of collagen I, III, TGF-β, and pSMAD2/3: Western blotting
Description: as §1
(§4) Cells were treated with Z16 under the same conditions as in Example 2-1, and the expression of RNA and proteins involved in the formation of hypertrophic scars or keloids was analyzed. The expression was confirmed through PCR and Western blotting.
as §1, with “a wound generation model.” for “a wound.”, “a scarring” for “a scar”, “with Z15mer_1 to Z15mer_4 additionally synthesized in Preparation Example 2.” for “with the selected Z16 peptide.”
(§5) Cells were treated with Z16 under the same conditions as in Example 3-1, and the expression of RNA and proteins involved in the formation of hypertrophic scars or keloids was analyzed. The expression was confirmed through PCR and Western blotting.

[3] = tested on: human dermal fibroblasts (HDFs); assay: CCK-8 assay, cell proliferation of HDFs; assay type: cell-based; settings: HDF, 10 μg/mL, compared to untreated negative control / other candidates
Description: as §2, §3

HDFs = assay: Scratch assay, cell migration of HDFs in TGF-β scar environment; assay type: cell-based, human; settings: HDF scratched, 10 ng/mL TGF-β, 24 hours, compared to TGF-β-treated group
Description: as §1
as §1, with “a wound generation model.” for “a wound.”, “a scarring” for “a scar”, “with Z15mer_1 to Z15mer_4 additionally synthesized in Preparation Example 2.” for “with the selected Z16 peptide.”

[4] = tested on: collagen I, III, TGF-β, pSMAD2/3; assay: RNA (PCR) and protein (Western blotting) expression in scratched, TGF-β-treated HDFs; assay type: cell-based, human; settings: HDF, TGF-β + peptide vs TGF-β-treated group; for mRNA expression of collagen I, III, and TGF-β: PCR; for protein expression of collagen I, III, TGF-β, and pSMAD2/3: Western blotting
Description: as §1, §4
as §1, with “a wound generation model.” for “a wound.”, “a scarring” for “a scar”, “with Z15mer_1 to Z15mer_4 additionally synthesized in Preparation Example 2.” for “with the selected Z16 peptide.”
as §5

Molecule	migration of cells in the affected area (KFs)	cell proliferation (CCK-8) (keloid fibroblasts (KFs))	inhibition of the formation of hypertrophic scars and keloids [1]	mRNA expression of collagen I, III, and TGF-β [2]	protein expression of collagen I, III, TGF-β, and pSMAD2/3 [2]	cell proliferation (CCK-8) [3]	migration of cells in the affected area (HDFs)	mRNA expression of collagen I, III, and TGF-β [4]	protein expression of collagen I, III, TGF-β, and pSMAD2/3 [4]
APGEKKKLKCLAYDF (ZAG protein-derived peptide) [Peptide Z15mer_1]	greatest inhibition of cell migration	lowest proliferation	more effectively than ZAG16	decreased	decreased	lowest proliferation	greatest inhibition of cell migration	decreased	decreased
APGEKKKLKCLAYDFYPGKIDVHWTRAGEV (ZAG protein-derived peptide) [Peptide Z16]	inhibited	lowest cell proliferation		decreased	decreased	lowest cell proliferation	inhibited	decreased	decreased
zinc-alpha-2-glycoprotein (ZAG) protein (protein, listed as Homo sapiens) MVRMVPVLLSLLLLLGPAVPQENQDGRYSLTYIYTGLSKHVEDVPAFQALGSLNDLQFFRYNSKDRKSQPMGLWRQVEGMEDWKQDSQLQKAREDIFMETLKDIVEYYNDSNGSHVLQGRFGCEIENNRSSGAFWKYYYDGKDYIEFNKEIPAWVPFDPAAQITKQKWEAEPVYVQRAKAYLEEECPATLRKYLKYSKNILDRQDPPSVVVTSHQAPGEKKKLKCLAYDFYPGKIDVHWTRAGEVQEPELRGDVLHNGNGTYQSWVVVAVPPQDTAPYSCHVQHSSLAQPLVVPWEAS		decreased cell proliferation				decreased cell proliferation			
